Measured values as given in patent US9695155B2, “Herbicidal substituted pyrimidinyloxy benzene compounds” (E. I. DU PONT DE NEMOURS AND COMPANY, priority 2013, dated 2017).

Legend:
barnyardgrass [1] = test: Test A preemergence; type: in vivo, Echinochloa crus-galli; details: for Barnyardgrass plant response rating (0 to 100 scale, 0 is no effect, 100 is complete control): 125 g ai/ha
Procedure, shortened: (§1)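 Visual injury scored 0–100 (100 = complete control) against untreated controls about 10 days after treatment in a greenhouse. Test chemicals, formulated with surfactant in non-phytotoxic solvent, were sprayed on soil preemergence or on 2-10 cm, one- to two-leaf plants postemergence.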

oilseed rape = test: Test C postemergence; type: in vivo, Brassica napus; details: for Oilseed Rape plant response rating: 31 g ai/ha
Procedure, shortened: (§2)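 Injury was assessed visually against controls 13 to 15 days after application, with 0 meaning no effect and 100 full control; missing entries are shown as a dash. Preemergence sprays hit seeded loam–sand soil, postemergence sprays hit 1- to 4-leaf plants.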

large (Lg) crabgrass = test: Test C postemergence; type: in vivo, Digitaria sanguinalis
Procedure, shortened: as §2

johnsongrass = test: Test C postemergence; type: in vivo, Sorghum halepense; details: for Johnsongrass plant response rating: 31 g ai/ha
Procedure, shortened: as §2

kochia = test: Test C postemergence; type: in vivo, Kochia scoparia
Procedure, shortened: as §2

barnyardgrass [2] = test: Test C postemergence; type: in vivo, Echinochloa crus-galli
Procedure, shortened: as §2

blackgrass = test: Test C postemergence; type: in vivo, Alopecurus myosuroides
Procedure, shortened: as §2

sedge, umbrella = test: Test B flooded paddy test; type: in vivo, Cyperus difformis; details: Flood, 250 g ai/ha, 0 to 100 scale where 0 is no effect and 100 is complete control
Procedure, shortened: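 Scores from 0 (no effect) to 100 (complete control) are visual comparisons with controls, taken 13 to 15 days after compound was applied into floodwater 3 cm deep around 2-leaf plants.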

yellow nutsedge = test: Test C postemergence; type: in vivo, Cyperus esculentus; details: for Nutsedge, Yellow plant response rating: 31 g ai/ha
Procedure, shortened: as §2

morningglory = test: Test C postemergence; type: in vivo, Ipomoea coccinea; details: for Morningglory plant response rating: 31 g ai/ha
Procedure, shortened: as §2

wheat = test: Test A postemergence; type: in vivo, Triticum aestivum; details: 0 to 100 scale, 0 no effect, 100 complete control
Procedure, shortened: as §1

[3] = postemergence, visual rating, scale 0 to 100 (0 no effect, 100 complete control), 13 to 15 days
[4] = 16 g ai/ha, postemergence, 0 is no effect, 100 is complete control
[5] = 125 g ai/ha, postemergence, visual rating, scale 0 to 100 (0 no effect, 100 complete control)
[6] = Postemergence, 62 g ai/ha, scale 0 to 100 (0 no effect, 100 complete control), 13 to 15 days
[7] = 31 g ai/ha, postemergence, visual rating, scale 0 to 100 (0 no effect, 100 complete control), 13 to 15 days

## N#Cc1cccc(Oc2ncc(Cl)cn2)c1-n1cc(C(F)F)cn1 [Compound 253, 3-(5-chloropyrimidin-2-yl)oxy-2-[4-(difluoromethyl)-1H-pyrazol-1-yl]benzonitrile]
Barnyardgrass [1]
  Barnyardgrass plant response rating (0 to 100 scale, 0 is no effect, 100 is complete control): 100
Barnyardgrass [1]; Echinochloa crus-galli, pre-emergence, 240 h, 31 g ai/ha, 0 to 100 scale where 0 is no effect and 100 is complete control, visual, approximately 10 days, read-out: Plant response rating, Barnyardgrass
  pest or weed control at 31 g/ha: 50%
Oilseed rape; [3]
  Oilseed Rape plant response rating: 60
Oilseed rape; Brassica napus, post-emergence, 16 g ai/ha, postemergence, 0 is no effect, 100 is complete control, read-out: Plant response rating (0 to 100), Oilseed Rape
  plant injury at 16 g/ha: 5%
Oilseed rape; Brassica napus, post-emergence, 125 g ai/ha, postemergence, visual rating, scale 0 to 100 (0 no effect, 100 complete control), read-out: Plant response rating, Oilseed Rape
  plant injury at 125 g/ha: 80%
Oilseed rape; Brassica napus, post-emergence, Postemergence, 62 g ai/ha, scale 0 to 100 (0 no effect, 100 complete control), 13 to 15 days, read-out: Plant response rating, Oilseed Rape
  plant injury at 62 g/ha: 10%
Large (Lg) crabgrass; Digitaria sanguinalis, post-emergence, 16 g ai/ha, postemergence, 0 is no effect, 100 is complete control, read-out: Plant response rating (0 to 100), Crabgrass, Large
  pest or weed control at 16 g/ha: 5%
Large (Lg) crabgrass; Digitaria sanguinalis, post-emergence, 31 g ai/ha, postemergence, visual rating, scale 0 to 100 (0 no effect, 100 complete control), 13 to 15 days, read-out: Crabgrass, Large plant response rating
  pest or weed control at 31 g/ha: 5%
Large (Lg) crabgrass; Digitaria sanguinalis, post-emergence, 125 g ai/ha, postemergence, visual rating, scale 0 to 100 (0 no effect, 100 complete control), read-out: Plant response rating, Crabgrass, Large
  pest or weed control at 125 g/ha: 20%
Large (Lg) crabgrass; Digitaria sanguinalis, post-emergence, Postemergence, 62 g ai/ha, scale 0 to 100 (0 no effect, 100 complete control), 13 to 15 days, read-out: Plant response rating, Crabgrass, Large
  pest or weed control at 62 g/ha: 15%
johnsongrass; [3]
  Johnsongrass plant response rating: 5
johnsongrass; Sorghum halepense, post-emergence, 16 g ai/ha, postemergence, 0 is no effect, 100 is complete control, read-out: Plant response rating (0 to 100), Johnsongrass
  pest or weed control at 16 g/ha: 0%
johnsongrass; Sorghum halepense, post-emergence, 125 g ai/ha, postemergence, visual rating, scale 0 to 100 (0 no effect, 100 complete control), read-out: Plant response rating, Johnsongrass
  pest or weed control at 125 g/ha: 10%
johnsongrass; Sorghum halepense, post-emergence, Postemergence, 62 g ai/ha, scale 0 to 100 (0 no effect, 100 complete control), 13 to 15 days, read-out: Plant response rating, Johnsongrass
  pest or weed control at 62 g/ha: 5%
kochia; Bassia scoparia, post-emergence, 16 g ai/ha, postemergence, 0 is no effect, 100 is complete control, read-out: Plant response rating (0 to 100), Kochia
  pest or weed control at 16 g/ha: 80%
kochia; Bassia scoparia, post-emergence, 31 g ai/ha, postemergence, visual rating, scale 0 to 100 (0 no effect, 100 complete control), 13 to 15 days, read-out: Kochia plant response rating
  pest or weed control at 31 g/ha: 98%
kochia; Bassia scoparia, post-emergence, 125 g ai/ha, postemergence, visual rating, scale 0 to 100 (0 no effect, 100 complete control), read-out: Plant response rating, Kochia
  pest or weed control at 125 g/ha: 100%
kochia; Bassia scoparia, post-emergence, Postemergence, 62 g ai/ha, scale 0 to 100 (0 no effect, 100 complete control), 13 to 15 days, read-out: Plant response rating, Kochia
  pest or weed control at 62 g/ha: 100%
Barnyardgrass [2]; Echinochloa crus-galli, post-emergence, 16 g ai/ha, postemergence, 0 is no effect, 100 is complete control, read-out: Plant response rating (0 to 100), Barnyardgrass
  pest or weed control at 16 g/ha: 5%
Barnyardgrass [2]; Echinochloa crus-galli, post-emergence, 31 g ai/ha, postemergence, visual rating, scale 0 to 100 (0 no effect, 100 complete control), 13 to 15 days, read-out: Barnyardgrass plant response rating
  pest or weed control at 31 g/ha: 5%
Barnyardgrass [2]; Echinochloa crus-galli, post-emergence, 125 g ai/ha, postemergence, visual rating, scale 0 to 100 (0 no effect, 100 complete control), read-out: Plant response rating, Barnyardgrass
  pest or weed control at 125 g/ha: 20%
Barnyardgrass [2]; Echinochloa crus-galli, post-emergence, Postemergence, 62 g ai/ha, scale 0 to 100 (0 no effect, 100 complete control), read-out: Plant response rating, Barnyardgrass
  pest or weed control at 62 g/ha: 10%
blackgrass; Alopecurus myosuroides, post-emergence, 16 g ai/ha, postemergence, 0 is no effect, 100 is complete control, read-out: Plant response rating (0 to 100), Blackgrass
  pest or weed control at 16 g/ha: 0%
blackgrass; Alopecurus myosuroides, post-emergence, 31 g ai/ha, postemergence, visual rating, scale 0 to 100 (0 no effect, 100 complete control), 13 to 15 days, read-out: Blackgrass plant response rating
  pest or weed control at 31 g/ha: 0%
blackgrass; Alopecurus myosuroides, post-emergence, 125 g ai/ha, postemergence, visual rating, scale 0 to 100 (0 no effect, 100 complete control), read-out: Plant response rating, Blackgrass
  pest or weed control at 125 g/ha: 10%
blackgrass; Alopecurus myosuroides, post-emergence, Postemergence, 62 g ai/ha, scale 0 to 100 (0 no effect, 100 complete control), 13 to 15 days, read-out: Plant response rating, Blackgrass
  pest or weed control at 62 g/ha: 0%
sedge, umbrella; Cyperus difformis, read-out: Plant response rating, Sedge, Umbrella
  pest or weed control at 250 g/ha: 85%
Yellow nutsedge; [3]
  Nutsedge, Yellow plant response rating: 5
Yellow nutsedge; Cyperus, post-emergence, 16 g ai/ha, postemergence, 0 is no effect, 100 is complete control, read-out: Plant response rating (0 to 100), Nutsedge, Yellow
  pest or weed control at 16 g/ha: 5%
Yellow nutsedge; Cyperus, post-emergence, 125 g ai/ha, postemergence, visual rating, scale 0 to 100 (0 no effect, 100 complete control), read-out: Plant response rating, Nutsedge, Yellow
  pest or weed control at 125 g/ha: 5%
Yellow nutsedge; Cyperus, post-emergence, Postemergence, 62 g ai/ha, scale 0 to 100 (0 no effect, 100 complete control), 13 to 15 days, read-out: Plant response rating, Nutsedge, Yellow
  pest or weed control at 62 g/ha: 5%
morningglory; [3]
  Morningglory plant response rating: 75
morningglory; Ipomoea, post-emergence, 16 g ai/ha, postemergence, 0 is no effect, 100 is complete control, read-out: Plant response rating (0 to 100), Morningglory
  pest or weed control at 16 g/ha: 60%
morningglory; Ipomoea, post-emergence, 125 g ai/ha, postemergence, visual rating, scale 0 to 100 (0 no effect, 100 complete control), read-out: Plant response rating, Morningglory
  pest or weed control at 125 g/ha: 85%
morningglory; Ipomoea, post-emergence, Postemergence, 62 g ai/ha, scale 0 to 100 (0 no effect, 100 complete control), 13 to 15 days, read-out: Plant response rating, Morningglory
  pest or weed control at 62 g/ha: 75%
wheat; Triticum aestivum, post-emergence, 240 h, 31 g ai/ha, read-out: Plant response rating, Wheat
  plant injury at 31 g/ha: 20%
wheat; Triticum aestivum, post-emergence, 240 h, 125 g ai/ha, read-out: Plant response rating, Wheat
  plant injury at 125 g/ha: 30%

## FC(F)Oc1cnn(-c2c(Cl)cccc2Oc2ncc(Cl)cn2)c1 [Compound 258]
Barnyardgrass [1]; 31 g ai/ha, 0 to 100 scale where 0 is no effect and 100 is complete control, visual, approximately 10 days
  Plant response rating, Barnyardgrass: 50
Barnyardgrass [1]
  Barnyardgrass plant response rating (0 to 100 scale, 0 is no effect, 100 is complete control): 90
Oilseed rape; [4]
  Plant response rating (0 to 100), Oilseed Rape: 70
Oilseed rape; [3]
  Oilseed Rape plant response rating: 85
Oilseed rape; [5]
  Plant response rating, Oilseed Rape: 98
Oilseed rape; [6]
  Plant response rating, Oilseed Rape: 95
Large (Lg) crabgrass; [4]
  Plant response rating (0 to 100), Crabgrass, Large: 5
Large (Lg) crabgrass; [7]
  Crabgrass, Large plant response rating: 5
Large (Lg) crabgrass; [5]
  Plant response rating, Crabgrass, Large: 15
Large (Lg) crabgrass; [6]
  Plant response rating, Crabgrass, Large: 10
johnsongrass; [4]
  Plant response rating (0 to 100), Johnsongrass: 0
johnsongrass; [3]
  Johnsongrass plant response rating: 5
johnsongrass; [5]
  Plant response rating, Johnsongrass: 5
johnsongrass; [6]
  Plant response rating, Johnsongrass: 5
kochia; [4]
  Plant response rating (0 to 100), Kochia: 90
kochia; [7]
  Kochia plant response rating: 95
kochia; [5]
  Plant response rating, Kochia: 100
kochia; [6]
  Plant response rating, Kochia: 100
Barnyardgrass [2]; [4]
  Plant response rating (0 to 100), Barnyardgrass: 5
Barnyardgrass [2]; [7]
  Barnyardgrass plant response rating: 10
Barnyardgrass [2]; [5]
  Plant response rating, Barnyardgrass: 10
Barnyardgrass [2]; [6]
  Plant response rating, Barnyardgrass: 10
blackgrass; [4]
  Plant response rating (0 to 100), Blackgrass: 0
blackgrass; [7]
  Blackgrass plant response rating: 5
blackgrass; [5]
  Plant response rating, Blackgrass: 10
blackgrass; [6]
  Plant response rating, Blackgrass: 5
sedge, umbrella
  Plant response rating, Sedge, Umbrella: 95
Yellow nutsedge; [4]
  Plant response rating (0 to 100), Nutsedge, Yellow: 0
Yellow nutsedge; [3]
  Nutsedge, Yellow plant response rating: 0
Yellow nutsedge; [5]
  Plant response rating, Nutsedge, Yellow: 5
Yellow nutsedge; [6]
  Plant response rating, Nutsedge, Yellow: 5
morningglory; [4]
  Plant response rating (0 to 100), Morningglory: 65
morningglory; [3]
  Morningglory plant response rating: 85
morningglory; [5]
  Plant response rating, Morningglory: 95
morningglory; [6]
  Plant response rating, Morningglory: 85
wheat; 31 g ai/ha
  Plant response rating, Wheat: 0
wheat; 125 g ai/ha
  Plant response rating, Wheat: 50
